Measured values: ChEMBL document CHEMBL1909046, “DrugMatrix in vitro pharmacology data”

Experiments:
[1] = DRUGMATRIX: Sodium/nucleoside co-transporter radioligand binding (ligand: nitrobenzylthioinosine); assay type: cell membranes, Cavia porcellus, Dunkin-Hartley, Cerebral cortex, Membrane; conditions: Not Active = under 50% inhibition at 10 µM
[2] = target: T1, Alpha-1B adrenergic receptor (Rattus norvegicus, UniProt P15823); assay: DRUGMATRIX: Alpha-1B adrenergic receptor radioligand binding (ligand: prazosin); assay type: cell membranes, Wistar, Liver, Membrane; conditions: Not Active = under 50% inhibition at 10 µM
T1 sequence (P15823 whole entry): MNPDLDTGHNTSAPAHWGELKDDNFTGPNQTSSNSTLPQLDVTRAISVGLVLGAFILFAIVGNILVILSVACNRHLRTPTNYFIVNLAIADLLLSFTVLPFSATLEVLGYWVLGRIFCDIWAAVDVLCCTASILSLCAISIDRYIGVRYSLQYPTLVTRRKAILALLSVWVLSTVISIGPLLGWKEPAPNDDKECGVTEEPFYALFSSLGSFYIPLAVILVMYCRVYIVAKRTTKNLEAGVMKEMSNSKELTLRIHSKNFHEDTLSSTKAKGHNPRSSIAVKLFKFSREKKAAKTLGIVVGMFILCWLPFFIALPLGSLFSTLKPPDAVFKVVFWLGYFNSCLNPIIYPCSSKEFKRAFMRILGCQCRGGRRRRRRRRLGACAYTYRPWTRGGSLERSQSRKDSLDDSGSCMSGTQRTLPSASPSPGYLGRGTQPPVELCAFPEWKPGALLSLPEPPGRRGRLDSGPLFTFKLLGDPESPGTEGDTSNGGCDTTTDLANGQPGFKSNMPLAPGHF

[3] = DRUGMATRIX: Tumor Necrosis Factor (TNF), Non-Selective radioligand binding (ligand: [125I] TNF-alpha); assay type: cell membranes, Membrane; conditions: u-937; Not Active = under 50% inhibition at 10 µM
[4] = DRUGMATRIX: Imidazoline I2, Central radioligand binding (ligand: [3H] Idazoxan); assay type: cell membranes, Rattus norvegicus, Wistar, Cerebral cortex, Membrane; conditions: Not Active = under 50% inhibition at 10 µM
[5] = target: Melanocortin receptor 3 (Homo sapiens, UniProt P41968); assay type: cell membranes, HEK293, Membrane; conditions: hek293; note: in other assays of this panel Not Active means under 50% inhibition at 10 µM
Melanocortin receptor 3, sequence (P41968 whole entry): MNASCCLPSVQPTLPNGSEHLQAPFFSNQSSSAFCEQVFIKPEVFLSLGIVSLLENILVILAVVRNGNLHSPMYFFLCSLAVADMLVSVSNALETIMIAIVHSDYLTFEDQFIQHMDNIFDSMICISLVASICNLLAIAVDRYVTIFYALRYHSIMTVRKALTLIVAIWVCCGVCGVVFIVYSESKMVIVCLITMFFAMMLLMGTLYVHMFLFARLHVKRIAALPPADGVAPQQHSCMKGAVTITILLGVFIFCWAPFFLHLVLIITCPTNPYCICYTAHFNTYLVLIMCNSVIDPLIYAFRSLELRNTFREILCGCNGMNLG

[6] = target: Cytochrome P450 2C19 (Homo sapiens, UniProt P33261); conditions: bti-tn-5b1-4; note: in other assays of this panel Not Active means under 50% inhibition at 10 µM
Cytochrome P450 2C19, sequence (P33261 whole entry): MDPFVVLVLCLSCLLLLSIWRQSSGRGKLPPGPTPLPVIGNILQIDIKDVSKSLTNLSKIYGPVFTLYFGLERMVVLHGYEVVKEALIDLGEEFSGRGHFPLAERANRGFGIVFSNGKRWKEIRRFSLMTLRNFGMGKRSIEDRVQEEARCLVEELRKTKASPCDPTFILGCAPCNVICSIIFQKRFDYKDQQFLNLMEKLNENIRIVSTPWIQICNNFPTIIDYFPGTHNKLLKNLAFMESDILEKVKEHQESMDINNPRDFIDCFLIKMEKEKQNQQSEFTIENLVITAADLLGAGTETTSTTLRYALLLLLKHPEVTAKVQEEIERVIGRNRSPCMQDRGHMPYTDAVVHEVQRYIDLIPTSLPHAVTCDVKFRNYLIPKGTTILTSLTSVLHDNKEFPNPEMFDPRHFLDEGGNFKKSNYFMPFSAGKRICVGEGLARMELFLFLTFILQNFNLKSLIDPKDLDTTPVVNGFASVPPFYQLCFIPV

[7] = target: Cytochrome P450 2D6 (Homo sapiens, UniProt P10635); conditions: bti-tn-5b1-4; note: in other assays of this panel Not Active means under 50% inhibition at 10 µM
Cytochrome P450 2D6, sequence (P10635 whole entry): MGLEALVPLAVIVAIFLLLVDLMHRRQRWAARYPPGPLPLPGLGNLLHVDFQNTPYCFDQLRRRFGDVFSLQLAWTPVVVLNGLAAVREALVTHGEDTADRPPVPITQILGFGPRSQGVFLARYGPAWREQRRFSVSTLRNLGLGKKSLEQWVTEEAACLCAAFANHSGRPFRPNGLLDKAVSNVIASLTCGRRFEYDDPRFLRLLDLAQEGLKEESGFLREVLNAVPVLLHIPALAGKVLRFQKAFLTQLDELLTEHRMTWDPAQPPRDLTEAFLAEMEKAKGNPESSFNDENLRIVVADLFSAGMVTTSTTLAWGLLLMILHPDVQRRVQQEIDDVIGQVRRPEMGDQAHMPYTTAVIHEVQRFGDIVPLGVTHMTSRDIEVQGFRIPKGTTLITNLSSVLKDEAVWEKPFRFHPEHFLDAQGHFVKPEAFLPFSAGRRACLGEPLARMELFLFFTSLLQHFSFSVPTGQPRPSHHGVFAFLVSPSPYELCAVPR

[8] = target: Cytochrome P450 2E1 (Homo sapiens, UniProt P05181); conditions: bti-tn-5b1-4; note: in other assays of this panel Not Active means under 50% inhibition at 10 µM
Cytochrome P450 2E1, sequence (P05181 whole entry): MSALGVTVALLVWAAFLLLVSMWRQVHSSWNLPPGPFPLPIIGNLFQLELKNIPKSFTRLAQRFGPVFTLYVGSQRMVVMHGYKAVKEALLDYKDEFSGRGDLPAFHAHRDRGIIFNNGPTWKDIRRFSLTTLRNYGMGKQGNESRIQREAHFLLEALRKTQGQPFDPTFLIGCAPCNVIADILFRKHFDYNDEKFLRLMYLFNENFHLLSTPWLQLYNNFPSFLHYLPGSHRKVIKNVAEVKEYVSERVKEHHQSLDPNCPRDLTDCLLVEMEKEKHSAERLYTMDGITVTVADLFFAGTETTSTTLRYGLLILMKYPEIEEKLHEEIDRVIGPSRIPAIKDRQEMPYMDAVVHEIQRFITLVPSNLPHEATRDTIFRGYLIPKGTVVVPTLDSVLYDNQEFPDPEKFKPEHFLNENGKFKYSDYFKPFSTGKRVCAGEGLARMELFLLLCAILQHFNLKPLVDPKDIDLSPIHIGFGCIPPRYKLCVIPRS

| Compound | IC50 [1] | Ki [1] | IC50 ([2]; read-out: IC50) | Ki ([2]; read-out: Ki) | IC50 [3] | Ki [3] | IC50 ([4]; read-out: IC50) | Ki ([4]; read-out: Ki) | IC50 [5] | IC50 [6] | Ki [6] | IC50 [7] | Ki [7] | IC50 [8] | Ki [8] | IC50 [2] | IC50 [4] | Ki [4] | Ki [2] | Ki [5] |
| --- | --- | --- | --- | --- | --- | --- | --- | --- | --- | --- | --- | --- | --- | --- | --- | --- | --- | --- | --- | --- |
| CC(C)[C@H]1C(=O)N2CCC[C@H]2[C@]2(O)O[C@](NC(=O)[C@@H]3C=C4c5cccc6[nH]cc(c56)C[C@H]4N(C)C3)(C(C)C)C(=O)N12 [ERGOCORNINE] | Not Active | Not Active | 5.19 nM | 2.87 nM | Not Active | Not Active | 4.49 nM | 2.99 nM | Not Active | Not Active | Not Active | Not Active | Not Active | Not Active | Not Active | – | – | – | – | – |
| OC(Cn1cncn1)(Cn1cncn1)c1ccc(F)cc1F [FLUCONAZOLE] | Not Active | Not Active | – | – | Not Active | Not Active | – | – | Not Active | Not Active | Not Active | Not Active | Not Active | Not Active | Not Active | Not Active | Not Active | Not Active | – | – |
| CC(C)C(=O)Nc1ccc([N+](=O)[O-])c(C(F)(F)F)c1 [FLUTAMIDE] | Not Active | Not Active | – | – | Not Active | Not Active | – | – | Not Active | Not Active | Not Active | Not Active | Not Active | Not Active | Not Active | Not Active | Not Active | Not Active | – | – |
| CC1(C)O[C@@H]2C[C@H]3[C@@H]4CCC5=CC(=O)CC[C@]5(C)[C@@]4(F)[C@@H](O)C[C@]3(C)[C@]2(C(=O)CCl)O1 [HALCINONIDE] | Not Active | Not Active | – | – | Not Active | Not Active | – | – | Not Active | Not Active | Not Active | Not Active | Not Active | Not Active | Not Active | Not Active | Not Active | Not Active | – | – |
| O=c1[nH]c(=O)n([C@H]2C[C@H](O)[C@@H](CO)O2)cc1I [IDOXURIDINE] | Not Active | Not Active | – | – | Not Active | Not Active | – | – | Not Active | Not Active | Not Active | Not Active | Not Active | Not Active | Not Active | Not Active | Not Active | Not Active | – | – |
| CC1Cc2ccccc2N1NC(=O)c1ccc(Cl)c(S(N)(=O)=O)c1 (stereo not given) [INDAPAMIDE] | Not Active | Not Active | – | – | Not Active | Not Active | – | – | Not Active | Not Active | Not Active | Not Active | Not Active | Not Active | Not Active | Not Active | Not Active | Not Active | – | – |
| Nc1nc(N)nc(-c2cc(Cl)ccc2Cl)n1.O=C(O)/C=C\C(=O)O [IRSOGLADINE MALEATE] | Not Active | Not Active | – | – | Not Active | Not Active | – | – | Not Active | Not Active | Not Active | Not Active | Not Active | Not Active | Not Active | Not Active | Not Active | Not Active | – | – |
| CCC(C)n1ncn(-c2ccc(N3CCN(c4ccc(OCC5COC(Cn6cncn6)(c6ccc(Cl)cc6Cl)O5)cc4)CC3)cc2)c1=O (stereo not given) [ITRACONAZOLE] | Not Active | Not Active | – | – | Not Active | Not Active | – | – | Not Active | Not Active | Not Active | Not Active | Not Active | Not Active | Not Active | Not Active | Not Active | Not Active | – | – |
| CCCCc1nc(Cl)c(CO)n1Cc1ccc(-c2ccccc2-c2nnn[nH]2)cc1 [LOSARTAN] | Not Active | Not Active | – | – | Not Active | Not Active | – | – | Not Active | Not Active | Not Active | Not Active | Not Active | Not Active | Not Active | Not Active | Not Active | Not Active | – | – |
| Sc1ncnc2nc[nH]c12 [MERCAPTOPURINE ANHYDROUS] | Not Active | Not Active | – | – | Not Active | Not Active | – | – | Not Active | Not Active | Not Active | Not Active | Not Active | Not Active | Not Active | Not Active | Not Active | Not Active | – | – |
| C[C@](N)(Cc1ccc(O)c(O)c1)C(=O)O [METHYLDOPA] | Not Active | Not Active | – | – | Not Active | Not Active | – | – | Not Active | Not Active | Not Active | Not Active | Not Active | Not Active | Not Active | Not Active | Not Active | Not Active | – | – |
| C[C@]12CCC(=O)C=C1CC[C@@H]1[C@@H]2CC[C@@]2(C)[C@H]1CC[C@]2(C)O [METHYLTESTOSTERONE] | Not Active | Not Active | – | – | Not Active | Not Active | – | – | Not Active | Not Active | Not Active | Not Active | Not Active | Not Active | Not Active | Not Active | Not Active | Not Active | – | – |
| Cc1ccccc1N1C(=O)c2cc(S(N)(=O)=O)c(Cl)cc2NC1C (stereo not given) [METOLAZONE] | Not Active | Not Active | – | – | Not Active | Not Active | – | – | Not Active | Not Active | Not Active | Not Active | Not Active | Not Active | Not Active | Not Active | Not Active | Not Active | – | – |
| NC1=NC(=O)C(c2ccccc2)O1 (stereo not given) [PEMOLINE] | Not Active | Not Active | – | – | Not Active | Not Active | – | – | Not Active | Not Active | Not Active | Not Active | Not Active | Not Active | Not Active | Not Active | Not Active | Not Active | – | – |
| Nc1nc2c(ncn2CCC(CO)CO)c(=O)[nH]1 [PENCICLOVIR] | Not Active | Not Active | – | – | Not Active | Not Active | – | – | Not Active | Not Active | Not Active | Not Active | Not Active | Not Active | Not Active | Not Active | Not Active | Not Active | – | – |
| C=C(C)C1(O)OC(=O)C=C1OC (stereo not given) [PENICILLIC ACID] | Not Active | Not Active | – | – | Not Active | Not Active | – | – | Not Active | Not Active | Not Active | Not Active | Not Active | Not Active | Not Active | Not Active | Not Active | Not Active | – | – |
| CNNCc1ccc(C(=O)NC(C)C)cc1 [PROCARBAZINE] | Not Active | Not Active | – | – | Not Active | Not Active | – | – | Not Active | Not Active | Not Active | Not Active | Not Active | Not Active | Not Active | Not Active | Not Active | Not Active | – | – |
| CC(O)CO (stereo not given) [PROPYLENE GLYCOL] | Not Active | Not Active | – | – | Not Active | Not Active | – | – | Not Active | Not Active | Not Active | Not Active | Not Active | Not Active | Not Active | Not Active | Not Active | Not Active | – | – |
| CADMIUM ACETATE | Not Active | Not Active | – | – | Not Active | Not Active | – | – | Not Active | Not Active | Not Active | Not Active | Not Active | Not Active | Not Active | Not Active | Not Active | Not Active | Not Active | Not Active |
| LEAD (II) ACETATE | Not Active | Not Active | – | – | Not Active | Not Active | – | – | Not Active | Not Active | Not Active | Not Active | Not Active | Not Active | Not Active | Not Active | Not Active | Not Active | Not Active | Not Active |
